# Assay results: patent US5041567A, “Antibacterial monic acid derivatives” (Beecham Group plc, priority 1982, dated 1991)
# Key:
# M. suipneumoniae Str. 11 = test: MIC against mycoplasma in vitro; format: cell-based; details: Mesomycoplasma hyopneumoniae, 144 h; M. suipneumoniae Str. 11; 6 days, 37° C.; read-out: MIC
# M. hyorhinis ATCC 25021 = test: MIC against mycoplasma in vitro; format: cell-based; details: Mesomycoplasma hyorhinis, ATCC25021, 144 h; M. hyorhinis ATCC 25021; 6 days, 37° C.; read-out: MIC
# [1] = system: Haemophilus influenzae Wy21; test: MIC against human bacteria in vitro; format: cell-based; details: Haemophilus influenzae, WY21, 18 h
# Staph. aureus Oxford = test: MIC against veterinary bacteria in vitro; details: Staphylococcus aureus, 18 h
# Procedure: (§1) The activity of the compounds of the Examples against various veterinarily important bacteria, was assayed in vitro using two-fold serial dilutions in Diagnostic Sensitivity Test Agar inoculated with 10^4 organisms.
# Strep. spp. 64/848-C = test: MIC against human bacteria in vitro; format: cell-based; details: 18 h
# Staph. aureus W2827 = test: MIC against human bacteria in vitro; format: cell-based; details: Staphylococcus aureus; Staph. aureus W2827; 5% chocolated horse blood agar, 18 hours; read-out: MIC
# Strep. pneumoniae CN33 = test: MIC against human bacteria in vitro; format: cell-based; details: Streptococcus pneumoniae; Strep. pneumoniae CN33; 5% chocolated horse blood agar, 18 hours; read-out: MIC
# S. typhimurium S18 = test: MIC against veterinary bacteria in vitro; details: Salmonella enterica, TYPHIMURIUM, 18 h
# Procedure: as §1
# [2] = system: Strep. pyogenes R80/421-A; test: MIC against human bacteria in vitro; format: cell-based; details: Streptococcus pyogenes; Strep. pyogenes R80/421-A; 5% chocolated horse blood agar, 18 hours; read-out: MIC
# Staph. aureus Russell = test: MIC against human bacteria in vitro; format: cell-based; details: Staphylococcus aureus; Staph. aureus Russell; 5% chocolated horse blood agar, 18 hours; read-out: MIC
# M. suipneumoniae LABER = test: MIC against mycoplasma in vitro; format: cell-based; details: Mesomycoplasma hyopneumoniae, 144 h; M. suipneumoniae LABER; 6 days, 37° C.; read-out: MIC
# M. suipneumoniae MS 16 = test: MIC against mycoplasma in vitro; format: cell-based; details: Mesomycoplasma hyopneumoniae, MS16, 144 h; M. suipneumoniae MS 16; 6 days, 37° C.; read-out: MIC
# [3] = system: Corynebacterium xerosis 9755; test: MIC against human bacteria in vitro; format: cell-based; details: Corynebacterium xerosis, 9755, 18 h
# [4] = system: Neisseria catarrhalis 1502; test: MIC against human bacteria in vitro; format: cell-based; details: Neisseria, 1502, 18 h
# [5] = system: Corynebacterium pyogenes CY1; test: MIC against veterinary bacteria in vitro; details: CY1, 18 h
# Procedure: as §1
# Strep. dysgalactiae SPD1 = test: MIC against veterinary bacteria in vitro; details: Streptococcus dysgalactiae, SPD1, 18 h
# Procedure: as §1
# M. suipneumoniae HK(2) = test: MIC against mycoplasma in vitro; format: cell-based; details: Mesomycoplasma hyopneumoniae, 144 h; M. suipneumoniae HK(2); 6 days, 37° C.; read-out: MIC
# E. coli ESS = test: MIC against human bacteria in vitro; format: cell-based; details: Escherichia coli, 18 h
# K. aerogenes A = test: MIC against human bacteria in vitro; format: cell-based; details: Klebsiella aerogenes, 18 h
# Bacillus subtilis 6633 = test: MIC against human bacteria in vitro; format: cell-based; details: Bacillus subtilis, 6633, 18 h
# M. suipneumoniae NB12 = test: MIC against mycoplasma in vitro; format: cell-based; details: Mesomycoplasma hyopneumoniae, 144 h; M. suipneumoniae NB12; Friis broth, 0.9% agarose, 6 days, 37° C.; read-out: MIC
# M. hyorhinis ATCC 23234 = test: MIC against mycoplasma in vitro; format: cell-based; details: Mesomycoplasma hyorhinis, ATCC23234, 144 h; M. hyorhinis ATCC 23234; 6 days, 37° C.; read-out: MIC
# [6] = system: Erysipelothrix rhusiopathiae NCTC 8163; test: MIC against veterinary bacteria in vitro; details: Erysipelothrix rhusiopathiae, NCTC8163, 18 h
# Procedure: as §1
# [7] = system: M. suipneumoniae ATCC 25095; test: MIC against mycoplasma in vitro; format: cell-based; details: Mesomycoplasma hyopneumoniae, ATCC25095, 144 h; M. suipneumoniae ATCC 25095; 6 days, 37° C.; read-out: MIC
# [8] = system: Staph. aureus 152 (pen. sens); test: MIC against veterinary bacteria in vitro; details: Staphylococcus aureus, 18 h
# Procedure: as §1
# Past. multocida PA2 = test: MIC against veterinary bacteria in vitro; details: Pasteurella multocida, PA2, 18 h
# Procedure: as §1
# Strep. uberis SPU1 = test: MIC against veterinary bacteria in vitro; details: Streptococcus uberis, SPU1, 18 h
# Procedure: as §1
# S. dublin S7 = test: MIC against veterinary bacteria in vitro; details: Salmonella enterica, S7, 18 h
# Procedure: as §1
# Strep. faecalis I = test: MIC against human bacteria in vitro; format: cell-based; details: Enterococcus faecalis, 18 h
# M. suipneumoniae TAM 6N = test: MIC against mycoplasma in vitro; format: cell-based; details: Mesomycoplasma hyopneumoniae, TAM6N, 144 h; M. suipneumoniae TAM 6N; 6 days, 37° C.; read-out: MIC
# E. coli NCTC 10418 = test: MIC against human bacteria in vitro; format: cell-based; details: Escherichia coli, NCTC10418, 18 h
# [9] = system: M. bovigenitalium ATCC 14173; test: MIC against mycoplasma in vitro; format: cell-based; details: 144 h; M. bovigenitalium ATCC 14173; 6 days, 37° C.; read-out: MIC
# Strep. agalactiae 2788-B = test: MIC against human bacteria in vitro; format: cell-based; details: Streptococcus agalactiae; Strep. agalactiae 2788-B; 5% chocolated horse blood agar, 18 hours; read-out: MIC
# [10] = system: Ps. aeruginosa NCTC 10662; test: MIC against human bacteria in vitro; format: cell-based; details: Pseudomonas aeruginosa, NCTC10662, 18 h
# Sarcina lutea 8340 = test: MIC against human bacteria in vitro; format: cell-based; details: Micrococcus luteus, 8340, 18 h
compound,measurement,setting,value
"COC(=O)CCCCCCCc1cnc(/C=C(\C)C[C@@H]2OC[C@H](C[C@@H]3O[C@H]3[C@@H](C)[C@H](C)O)[C@@H](O)[C@H]2O)o1 [Example 7, 5-(7-Methoxycarbonylheptyl)-2-(1-normon-2-yl)oxazole A]",MIC,M. suipneumoniae Str. 11,10 mg/L
same,MIC,M. hyorhinis ATCC 25021,10 mg/L
same,MIC,[1],1 mg/L
same,MIC,Staph. aureus Oxford,5 mg/L
same,MIC,Strep. spp. 64/848-C,10 mg/L
same,MIC,Staph. aureus W2827,25 mg/L
same,MIC,Strep. pneumoniae CN33,25 mg/L
same,MIC,S. typhimurium S18,> 80 mg/L
same,MIC,[2],25 mg/L
same,MIC,Staph. aureus Russell,25 mg/L
same,MIC,M. suipneumoniae LABER,10 mg/L
same,MIC,M. suipneumoniae MS 16,10 mg/L
same,MIC,[3],> 100 mg/L
same,MIC,[4],5 mg/L
same,MIC,[5],> 80 mg/L
same,MIC,Strep. dysgalactiae SPD1,2.5 mg/L
same,MIC,M. suipneumoniae HK(2),> 10 mg/L
same,MIC,E. coli ESS,0.5 mg/L
same,MIC,K. aerogenes A,> 100 mg/L
same,MIC,Bacillus subtilis 6633,2.5 mg/L
same,MIC,M. suipneumoniae NB12,> 10 mg/L
same,MIC,M. hyorhinis ATCC 23234,10 mg/L
same,MIC,[6],> 80 mg/L
same,MIC,[7],10 mg/L
same,MIC,[8],5 mg/L
same,MIC,Past. multocida PA2,20 mg/L
same,MIC,Strep. uberis SPU1,1.25 mg/L
same,MIC,S. dublin S7,> 80 mg/L
same,MIC,Strep. faecalis I,> 100 mg/L
same,MIC,M. suipneumoniae TAM 6N,> 10 mg/L
same,MIC,E. coli NCTC 10418,> 100 mg/L
same,MIC,[9],1 mg/L
same,MIC,Strep. agalactiae 2788-B,25 mg/L
same,MIC,[10],> 100 mg/L
same,MIC,Sarcina lutea 8340,> 100 mg/L
